# According to paper PMC8245078, “Development of novel benzofuran-isatin conjugates as potential antiproliferative agents with apoptosis inducing mechanism in Colon cancer” (Journal of Enzyme Inhibition and Medicinal Chemistry, 2021):
# How the values were obtained:
# Type in all cases: cell-based
# SK-MEL-28 = experiment: NCI single dose screening (10 µM); conditions: Homo sapiens; SK-MEL-28, Melanoma, single dose 10^−5 M; read-out: GI% (cell growth inhibition percentage)
# SR = experiment: NCI single dose screening (10 µM); conditions: Homo sapiens, Leukaemia, single dose 10^−5 M, read-out: GI% (cell growth inhibition percentage)
# EKVX = experiment: NCI single dose screening (10 µM); conditions: Homo sapiens, Non-small cell lung cancer, single dose 10^−5 M, read-out: GI% (cell growth inhibition percentage)
# HCT-15 = experiment: NCI single dose screening (10 µM); conditions: Homo sapiens; HCT-15, Colon cancer, single dose 10^−5 M; read-out: GI% (cell growth inhibition percentage)
# MDA-MB-231/ATCC = experiment: NCI single dose screening (10 µM); conditions: Homo sapiens; MDA-MB-231/ATCC, Breast cancer, single dose 10^−5 M; read-out: GI% (cell growth inhibition percentage)
# OVCAR-4 = experiment: NCI single dose screening (10 µM); conditions: Homo sapiens; OVCAR-4, Ovarian cancer, single dose 10^−5 M; read-out: GI% (cell growth inhibition percentage)
# LOX IMVI = experiment: NCI single dose screening (10 µM); conditions: Homo sapiens, Melanoma, single dose 10^−5 M, read-out: GI% (cell growth inhibition percentage)
# SN12C = experiment: NCI single dose screening (10 µM); conditions: Homo sapiens, Renal cancer, single dose 10^−5 M, read-out: GI% (cell growth inhibition percentage)
# MDA-MB-435 = experiment: NCI single dose screening (10 µM); conditions: Homo sapiens; MDA-MB-435, Melanoma, single dose 10^−5 M; read-out: GI% (cell growth inhibition percentage)
# RXF 393 = experiment: NCI single dose screening (10 µM); conditions: Homo sapiens; RXF 393, Renal cancer, single dose 10^−5 M; read-out: GI% (cell growth inhibition percentage)
# M14 = experiment: NCI single dose screening (10 µM); conditions: Homo sapiens; M14, Melanoma, single dose 10^−5 M; read-out: GI% (cell growth inhibition percentage)
# HOP-92 = experiment: NCI single dose screening (10 µM); conditions: Homo sapiens; HOP-92, Non-small cell lung cancer, single dose 10^−5 M; read-out: GI% (cell growth inhibition percentage)
# 786-0 = experiment: NCI single dose screening (10 µM); conditions: Homo sapiens; 786-0, Renal cancer, single dose 10^−5 M; read-out: GI% (cell growth inhibition percentage)
# BT-549 = experiment: NCI single dose screening (10 µM); conditions: Homo sapiens; BT-549, Breast cancer, single dose 10^−5 M; read-out: GI% (cell growth inhibition percentage)
# MCF7 = experiment: NCI single dose screening (10 µM); conditions: Homo sapiens; MCF7, Breast cancer, single dose 10^−5 M; read-out: GI% (cell growth inhibition percentage)
# DU-145 = experiment: NCI single dose screening (10 µM); conditions: Homo sapiens; DU-145, Prostate cancer, single dose 10^−5 M; read-out: GI% (cell growth inhibition percentage)
# NCI-H460 = experiment: NCI single dose screening (10 µM); conditions: Homo sapiens; NCI-H460, Non-small cell lung cancer, single dose 10^−5 M; read-out: GI% (cell growth inhibition percentage)
# MOLT-4 = experiment: NCI single dose screening (10 µM); conditions: Homo sapiens; MOLT-4, Leukaemia, single dose 10^−5 M; read-out: GI% (cell growth inhibition percentage)
# U251 = experiment: NCI single dose screening (10 µM); conditions: Homo sapiens, U-251; U251, CNS cancer, single dose 10^−5 M; read-out: GI% (cell growth inhibition percentage)
# A549/ATCC = experiment: NCI single dose screening (10 µM); conditions: Homo sapiens; A549/ATCC, Non-small cell lung cancer, single dose 10^−5 M; read-out: GI% (cell growth inhibition percentage)
# [1] = system: NCI-55 cancer cell line panel; experiment: NCI single dose screening (10 µM), whole panel; conditions: Homo sapiens; mean over NCI-55 cell lines, single dose 10^−5 M; read-out: Mean inhibition, % (mean GI%)
# MDA-MB-468 = experiment: NCI single dose screening (10 µM); conditions: Homo sapiens; MDA-MB-468, Breast cancer, single dose 10^−5 M; read-out: GI% (cell growth inhibition percentage)
# HCT-116 = experiment: NCI single dose screening (10 µM); conditions: Homo sapiens; HCT-116, Colon cancer, single dose 10^−5 M; read-out: GI% (cell growth inhibition percentage)
# CAKI-1 = experiment: NCI single dose screening (10 µM); conditions: Homo sapiens; CAKI-1, Renal cancer, single dose 10^−5 M; read-out: GI% (cell growth inhibition percentage)
# NCI-H522 = experiment: NCI single dose screening (10 µM); conditions: Homo sapiens; NCI-H522, Non-small cell lung cancer, single dose 10^−5 M; read-out: GI% (cell growth inhibition percentage)
# K-562 = experiment: NCI single dose screening (10 µM); conditions: Homo sapiens, K562; K-562, Leukaemia, single dose 10^−5 M; read-out: GI% (cell growth inhibition percentage)
# HOP-62 = experiment: NCI single dose screening (10 µM); conditions: Homo sapiens; HOP-62, Non-small cell lung cancer, single dose 10^−5 M; read-out: GI% (cell growth inhibition percentage)
# PC-3 = experiment: NCI single dose screening (10 µM); conditions: Homo sapiens; PC-3, Prostate cancer, single dose 10^−5 M; read-out: GI% (cell growth inhibition percentage)
# HCC-2998 = experiment: NCI single dose screening (10 µM); conditions: Homo sapiens; HCC-2998, Colon cancer, single dose 10^−5 M; read-out: GI% (cell growth inhibition percentage)
# ACHN = experiment: NCI single dose screening (10 µM); conditions: Homo sapiens, Renal cancer, single dose 10^−5 M, read-out: GI% (cell growth inhibition percentage)
# COLO 205 = experiment: NCI single dose screening (10 µM); conditions: Homo sapiens; COLO 205, Colon cancer, single dose 10^−5 M; read-out: GI% (cell growth inhibition percentage)
# NCI-H23 = experiment: NCI single dose screening (10 µM); conditions: Homo sapiens; NCI-H23, Non-small cell lung cancer, single dose 10^−5 M; read-out: GI% (cell growth inhibition percentage)
smiles,measurement,setting,value
Cc1c(C(=O)N/N=C2\C(=O)Nc3ccc(F)cc32)oc2ccccc12 [Compound 5b],inhibition at 10 µM,SK-MEL-28,< 10%
same,inhibition at 10 µM,SR,< 10%
same,inhibition at 10 µM,EKVX,29.6%
same,inhibition at 10 µM,HCT-15,< 10%
same,inhibition at 10 µM,MDA-MB-231/ATCC,14.6%
same,inhibition at 10 µM,OVCAR-4,< 10%
same,inhibition at 10 µM,LOX IMVI,< 10%
same,inhibition at 10 µM,SN12C,< 10%
same,inhibition at 10 µM,MDA-MB-435,< 10%
same,inhibition at 10 µM,RXF 393,< 10%
same,inhibition at 10 µM,M14,< 10%
same,inhibition at 10 µM,HOP-92,< 10%
same,inhibition at 10 µM,786-0,< 10%
same,inhibition at 10 µM,BT-549,< 10%
same,inhibition at 10 µM,MCF7,19%
same,inhibition at 10 µM,DU-145,< 10%
same,inhibition at 10 µM,NCI-H460,< 10%
same,inhibition at 10 µM,MOLT-4,< 10%
same,inhibition at 10 µM,U251,< 10%
same,inhibition at 10 µM,A549/ATCC,< 10%
same,inhibition at 10 µM,[1],0.75%
same,inhibition at 10 µM,MDA-MB-468,< 10%
same,inhibition at 10 µM,HCT-116,< 10%
same,inhibition at 10 µM,CAKI-1,19.5%
same,inhibition at 10 µM,NCI-H522,10.4%
same,inhibition at 10 µM,K-562,< 10%
same,inhibition at 10 µM,HOP-62,< 10%
same,inhibition at 10 µM,PC-3,< 10%
same,inhibition at 10 µM,HCC-2998,< 10%
same,inhibition at 10 µM,ACHN,< 10%
same,inhibition at 10 µM,COLO 205,< 10%
same,inhibition at 10 µM,NCI-H23,< 10%
